# Laboratory results reported in ChEMBL document CHEMBL1201862, “PubChem BioAssay data set” (2004).
# Calls of active or inactive are those of the source.
# Legend:
# [1] = molecular target: T1, Aryl hydrocarbon receptor (Homo sapiens, UniProt P35869); assay: Luminescence-based cell-based high throughput dose response assay for activators of the Aryl Hydrocarbon Receptor (AHR). [Related pubchem assays: 2796 (Primary screen (AHR activators in singlicate)), 2845 (Confirmation screen (AHR activators in triplicate)), 434939 (Counterscreen (PXR activators in triplicate)), 2804 (Summary (AHR activators))]; assay type: ADME
# T1 sequence (P35869 whole entry): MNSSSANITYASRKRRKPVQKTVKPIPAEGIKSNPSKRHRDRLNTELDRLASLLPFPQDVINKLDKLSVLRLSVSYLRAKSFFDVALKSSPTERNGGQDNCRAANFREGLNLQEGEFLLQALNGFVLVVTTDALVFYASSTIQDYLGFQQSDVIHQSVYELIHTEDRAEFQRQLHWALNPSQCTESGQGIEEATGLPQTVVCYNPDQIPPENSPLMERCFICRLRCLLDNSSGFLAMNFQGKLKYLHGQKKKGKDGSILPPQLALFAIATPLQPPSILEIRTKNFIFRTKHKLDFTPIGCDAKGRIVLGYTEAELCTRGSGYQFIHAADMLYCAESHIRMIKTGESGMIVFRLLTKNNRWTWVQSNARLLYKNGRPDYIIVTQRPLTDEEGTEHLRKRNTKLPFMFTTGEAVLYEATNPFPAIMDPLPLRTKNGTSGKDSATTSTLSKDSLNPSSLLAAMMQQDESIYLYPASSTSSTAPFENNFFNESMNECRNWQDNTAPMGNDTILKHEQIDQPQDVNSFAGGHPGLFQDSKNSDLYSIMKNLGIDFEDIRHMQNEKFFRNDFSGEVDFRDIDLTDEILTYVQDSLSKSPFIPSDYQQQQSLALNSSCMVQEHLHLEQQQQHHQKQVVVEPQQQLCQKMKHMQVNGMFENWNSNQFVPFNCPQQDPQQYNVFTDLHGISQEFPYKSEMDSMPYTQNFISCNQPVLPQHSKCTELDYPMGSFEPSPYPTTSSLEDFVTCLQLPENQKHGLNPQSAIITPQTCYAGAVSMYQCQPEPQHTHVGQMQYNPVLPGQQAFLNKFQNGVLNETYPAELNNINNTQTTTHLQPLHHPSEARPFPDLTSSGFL
# [2] = molecular target: NADPH oxidase 1 (Homo sapiens, UniProt Q9Y5S8); assay: Late-stage luminescence-based cell-based dose response assay to identify inhibitors of NADPH oxidase 1 (NOX1): Synthesized analogs.; assay type: functional
# [3] = molecular target: G-protein coupled receptor 55 (Homo sapiens, UniProt Q9Y2T6); assay: selective activators of receptor GPR55 – imaging, U2OS cells, beta-arrestin-GFP redistribution, primary screen (AID 1961); assay type: functional
# [4] = molecular target: Eukaryotic translation initiation factor 4E (Mus musculus, UniProt P63073); assay: blockers of eIF4G binding by eIF4E – biochemical, TR-FRET, dose response (AID 855); assay type: functional;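 further: potency for disrupting eIF4E binding to eIF4GI seen as loss of FRET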
# [5] = molecular target: Large T antigen (Simian virus 40, UniProt P03070); assay type: functional, Betapolyomavirus macacae;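 further: Confirmatory-stage PubChem screen for compounds that inhibit SV40 T antigen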
# [6] = molecular target: Induced myeloid leukemia cell differentiation protein Mcl-1 (Homo sapiens, UniProt Q07820); assay type: functional
# [7] = molecular target: T2, Hexokinase HKDC1 (Homo sapiens, UniProt Q2TB90); assay: inhibition of HKDC1 glucose phosphorylation – biochemical, W721R variant, dose response (AID 504729); assay type: functional
# T2 sequence (Q2TB90 whole entry): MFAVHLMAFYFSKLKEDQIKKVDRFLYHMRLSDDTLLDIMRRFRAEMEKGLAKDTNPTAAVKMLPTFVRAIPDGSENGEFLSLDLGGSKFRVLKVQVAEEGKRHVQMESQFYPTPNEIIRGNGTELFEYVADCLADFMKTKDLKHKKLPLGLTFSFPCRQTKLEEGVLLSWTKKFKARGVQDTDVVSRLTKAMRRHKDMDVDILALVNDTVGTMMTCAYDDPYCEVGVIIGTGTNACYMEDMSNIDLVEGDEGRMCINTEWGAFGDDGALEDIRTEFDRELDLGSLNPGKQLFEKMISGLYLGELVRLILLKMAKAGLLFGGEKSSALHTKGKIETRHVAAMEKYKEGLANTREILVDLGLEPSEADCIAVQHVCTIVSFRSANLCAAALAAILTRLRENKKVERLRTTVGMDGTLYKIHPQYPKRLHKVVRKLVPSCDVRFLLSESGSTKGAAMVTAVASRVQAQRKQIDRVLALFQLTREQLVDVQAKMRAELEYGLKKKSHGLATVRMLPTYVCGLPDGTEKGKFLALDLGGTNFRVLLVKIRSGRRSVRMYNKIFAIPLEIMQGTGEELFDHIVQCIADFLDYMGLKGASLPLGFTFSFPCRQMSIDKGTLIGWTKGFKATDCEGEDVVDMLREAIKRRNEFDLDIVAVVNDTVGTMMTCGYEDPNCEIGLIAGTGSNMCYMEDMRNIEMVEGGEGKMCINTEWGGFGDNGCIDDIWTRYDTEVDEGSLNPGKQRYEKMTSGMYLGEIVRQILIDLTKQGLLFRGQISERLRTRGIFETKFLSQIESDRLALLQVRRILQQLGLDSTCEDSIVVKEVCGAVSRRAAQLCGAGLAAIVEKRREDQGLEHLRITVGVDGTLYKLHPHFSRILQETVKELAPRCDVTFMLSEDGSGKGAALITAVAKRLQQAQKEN
# [8] = molecular target: Protein Tat (Human immunodeficiency virus type 1 group M subtype B (isolate HXB2)(HIV-1), UniProt P04608); assay type: functional;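 further: tat binding to TAR RNA read out by fluorescence polarization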
# [9] = Luminescent dose response cell-based high throughput screening assay for inhibitors of the Janus kinase 2 mutant JAK2V617F. [Related pubchem assays: 1446 (Primary screen.), 1521 (Confirmation assay.), 1486 (Counter screen.)]; assay type: functional
# [10] = system: BJ; assay: BJ-TERT-LT-ST fibroblast viability loss – cell-based, RAS-independent, luminescence, dose response (AID 1935); assay type: functional; details: Homo sapiens;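 further: BJ fibroblasts immortalized with TERT plus LT and ST oncogenes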
# [11] = system: BJ; assay: cells; assay type: functional, cell-based; details: Homo sapiens
# [12] = DRD fibroblast viability loss – cell-based, non-viral oncogenic, luminescence, dose response (AID 1934); assay type: functional; details: Homo sapiens
# [13] = system: BJ; assay: BJ-TERT fibroblast viability loss – cell-based, RAS-independent, luminescence, dose response (AID 1933); assay type: functional; details: Homo sapiens
# [14] = molecular target: T3, Mannose-6-phosphate isomerase (Homo sapiens, UniProt P34949); assay: MPI enzyme activity inhibition – biochemical, fluorescence intensity, coupled assay, primary screen (AID 1209)
# T3 sequence (P34949 whole entry): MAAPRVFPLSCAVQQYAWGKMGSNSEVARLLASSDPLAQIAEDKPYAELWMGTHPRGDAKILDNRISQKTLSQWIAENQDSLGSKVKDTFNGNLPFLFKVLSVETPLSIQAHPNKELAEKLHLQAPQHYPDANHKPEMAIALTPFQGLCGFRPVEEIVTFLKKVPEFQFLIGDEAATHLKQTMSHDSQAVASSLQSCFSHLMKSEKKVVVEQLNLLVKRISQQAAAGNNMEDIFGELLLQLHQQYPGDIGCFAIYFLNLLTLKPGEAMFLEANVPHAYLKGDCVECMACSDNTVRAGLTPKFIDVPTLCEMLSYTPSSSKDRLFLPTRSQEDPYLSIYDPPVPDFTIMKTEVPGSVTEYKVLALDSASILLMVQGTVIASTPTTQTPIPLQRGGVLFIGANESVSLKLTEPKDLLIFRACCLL
# [15] = NIH-3T3 fibroblast cytotoxicity, dose response, cytotoxicity control, cell-based, fluorescence, Alamar Blue, secondary assay (AID 2327); assay type: functional;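 further: NIH-3T3 mouse fibroblasts cultured with fluconazole at 8 µg/mL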
# [16] = molecular target: T3, Mannose-6-phosphate isomerase; assay: MPI inhibition at elevated mannose 6-phosphate – biochemical, fluorescence intensity, high mannose 6-phosphate, primary screen (AID 1220)
# [17] = molecular target: Heat shock protein HSP 90-alpha (Homo sapiens, UniProt P07900); assay type: functional, organism-based
# [18] = molecular target: T4, Rac GTPase-activating protein 1 (Homo sapiens, UniProt Q9H0H5); assay: blockers of MgcRacGAP-driven Rac1 GTP hydrolysis – biochemical, ADP Hunter fluorescence, primary and confirmatory, confirmation (AID 624330); assay type: functional
# T4 sequence (Q9H0H5 whole entry): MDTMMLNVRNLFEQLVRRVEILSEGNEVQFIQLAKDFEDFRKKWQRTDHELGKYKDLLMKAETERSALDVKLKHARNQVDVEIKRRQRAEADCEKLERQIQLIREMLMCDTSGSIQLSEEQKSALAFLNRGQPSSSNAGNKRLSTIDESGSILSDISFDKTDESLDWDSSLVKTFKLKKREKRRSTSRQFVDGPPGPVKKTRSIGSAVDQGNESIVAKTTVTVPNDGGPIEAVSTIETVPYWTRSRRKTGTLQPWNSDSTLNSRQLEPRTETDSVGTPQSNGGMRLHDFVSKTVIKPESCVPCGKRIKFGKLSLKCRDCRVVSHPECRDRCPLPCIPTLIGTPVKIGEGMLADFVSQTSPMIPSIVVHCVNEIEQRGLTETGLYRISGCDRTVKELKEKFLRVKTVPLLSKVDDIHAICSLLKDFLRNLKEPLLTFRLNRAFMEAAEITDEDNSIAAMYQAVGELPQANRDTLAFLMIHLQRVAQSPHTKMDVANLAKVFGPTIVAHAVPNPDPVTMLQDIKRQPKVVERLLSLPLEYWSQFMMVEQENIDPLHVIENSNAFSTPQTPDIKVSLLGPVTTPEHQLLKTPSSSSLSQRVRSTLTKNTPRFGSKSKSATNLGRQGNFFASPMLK
# [19] = fluconazole-exposed Candida albicans growth modulators – fluorescence, retest, confirmation (AID 2467); assay type: functional, cell-based
# [20] = molecular target: 14-3-3 protein gamma (Homo sapiens, UniProt P61981); assay: modulators of 14-3-3 gamma client binding – dose response (AID 711); assay type: functional
# [21] = molecular target: T5, Zinc finger protein mex-5 (Caenorhabditis elegans, UniProt Q9XUB2); assay: potency of MEX-5 RNA-binding blockers – biochemical, C. elegans, fluorescence polarization, dose response (AID 1960)
# T5 sequence (Q9XUB2 whole entry): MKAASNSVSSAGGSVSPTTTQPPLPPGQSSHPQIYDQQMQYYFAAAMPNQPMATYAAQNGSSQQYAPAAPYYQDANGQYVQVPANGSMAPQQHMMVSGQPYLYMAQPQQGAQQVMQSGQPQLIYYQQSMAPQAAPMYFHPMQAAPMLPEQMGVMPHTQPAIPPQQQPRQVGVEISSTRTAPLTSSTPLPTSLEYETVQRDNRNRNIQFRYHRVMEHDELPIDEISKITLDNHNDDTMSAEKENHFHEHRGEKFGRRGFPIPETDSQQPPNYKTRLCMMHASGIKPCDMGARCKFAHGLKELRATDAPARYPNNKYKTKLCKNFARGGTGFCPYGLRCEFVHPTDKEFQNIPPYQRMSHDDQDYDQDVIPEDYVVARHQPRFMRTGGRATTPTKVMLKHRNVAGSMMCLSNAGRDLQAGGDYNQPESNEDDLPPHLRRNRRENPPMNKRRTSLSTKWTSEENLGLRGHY
# [22] = molecular target: T6, RNA-binding protein pos-1 (Caenorhabditis elegans, UniProt G5EF15); assay: disruptors of C. elegans POS-1 RNA interaction – biochemical, fluorescence polarization, dose response (AID 1964);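 further: purified POS-1 fused to maltose binding protein made in E. coli; potency of compounds blocking POS-1 binding to fluorescent RNA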
# T6 sequence (G5EF15 whole entry): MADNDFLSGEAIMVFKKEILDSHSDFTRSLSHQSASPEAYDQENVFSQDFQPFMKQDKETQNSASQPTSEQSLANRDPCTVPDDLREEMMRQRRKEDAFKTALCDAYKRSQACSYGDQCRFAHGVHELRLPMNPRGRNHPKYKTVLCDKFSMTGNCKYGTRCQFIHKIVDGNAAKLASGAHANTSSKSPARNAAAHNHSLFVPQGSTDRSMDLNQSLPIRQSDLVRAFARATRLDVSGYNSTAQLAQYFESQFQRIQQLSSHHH
# [23] = molecular target: Peroxisome proliferator-activated receptor gamma/Nuclear receptor corepressor 2 (Homo sapiens, UniProt P37231+Q9Y618); assay: Counterscreen for NR2E3 inverse agonists: TR-FRET-based biochemical high throughput dose response assay to identify inverse agonists of the interaction between peroxisome proliferator-activated receptor gamma (PPARg) and nuclear receptor co-repressor 2 (NCOR2).; assay type: functional
# [24] = molecular target: Peroxisome proliferator-activated receptor gamma/Nuclear receptor coactivator 2 (Homo sapiens, UniProt P37231); assay type: functional;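 further: agonist potency for raising coactivator recruitment to the receptor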
# [25] = molecular target: Peroxisome proliferator-activated receptor gamma/Nuclear receptor coactivator 1 (Homo sapiens, UniProt P37231); assay type: functional;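 further: agonist potency as compounds enhance coactivator SRC-1 recruitment to PPARgamma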
# [26] = molecular target: Peroxisome proliferator-activated receptor gamma/Nuclear receptor coactivator 3 (Homo sapiens, UniProt P37231); assay type: functional;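 further: agonist potency for raising coactivator recruitment to the receptor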
# [27] = molecular target: Photoreceptor-specific nuclear receptor (Homo sapiens, UniProt Q9Y5X4); assay: ligands suppressing NR2E3 nuclear receptor activity – biochemical, TR-FRET, dose response (AID 463256); assay type: functional
# [28] = molecular target: Dual specificity tyrosine-phosphorylation-regulated kinase 1A (Rattus norvegicus, UniProt Q63470); assay type: biochemical, Homo sapiens
# [29] = molecular target: Mitogen-activated protein kinase 10 (Homo sapiens, UniProt P53779); assay: Dose response biochemical screening assay for inhibitors of c-Jun N-Terminal Kinase 3 (JNK3). [Related pubchem assays: 746 ]
# Sequence of Mitogen-activated protein kinase 10 (P53779 whole entry): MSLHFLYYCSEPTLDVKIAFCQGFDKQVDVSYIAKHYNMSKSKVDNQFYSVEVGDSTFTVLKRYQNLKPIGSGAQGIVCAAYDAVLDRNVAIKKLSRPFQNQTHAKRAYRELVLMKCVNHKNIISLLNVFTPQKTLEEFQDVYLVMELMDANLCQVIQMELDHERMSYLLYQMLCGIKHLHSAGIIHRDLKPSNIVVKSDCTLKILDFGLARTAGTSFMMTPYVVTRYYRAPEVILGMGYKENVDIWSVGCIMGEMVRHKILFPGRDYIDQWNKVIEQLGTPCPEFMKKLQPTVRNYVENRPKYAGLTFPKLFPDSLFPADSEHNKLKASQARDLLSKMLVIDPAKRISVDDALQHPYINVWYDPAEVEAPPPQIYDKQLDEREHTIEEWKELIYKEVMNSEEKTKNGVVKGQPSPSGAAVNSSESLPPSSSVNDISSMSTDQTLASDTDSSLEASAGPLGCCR
# Sequence of G-protein coupled receptor 55 (Q9Y2T6 whole entry): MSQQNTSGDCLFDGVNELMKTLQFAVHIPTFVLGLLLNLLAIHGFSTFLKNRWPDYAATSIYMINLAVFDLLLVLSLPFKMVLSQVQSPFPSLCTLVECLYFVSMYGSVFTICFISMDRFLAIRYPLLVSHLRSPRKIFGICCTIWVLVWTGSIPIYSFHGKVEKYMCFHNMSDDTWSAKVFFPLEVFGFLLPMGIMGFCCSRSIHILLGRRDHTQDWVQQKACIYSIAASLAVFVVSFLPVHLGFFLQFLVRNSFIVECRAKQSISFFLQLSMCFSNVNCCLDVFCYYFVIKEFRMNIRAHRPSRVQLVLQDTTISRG
# Sequence of Peroxisome proliferator-activated receptor gamma/Nuclear receptor corepressor 2 (P37231 whole entry): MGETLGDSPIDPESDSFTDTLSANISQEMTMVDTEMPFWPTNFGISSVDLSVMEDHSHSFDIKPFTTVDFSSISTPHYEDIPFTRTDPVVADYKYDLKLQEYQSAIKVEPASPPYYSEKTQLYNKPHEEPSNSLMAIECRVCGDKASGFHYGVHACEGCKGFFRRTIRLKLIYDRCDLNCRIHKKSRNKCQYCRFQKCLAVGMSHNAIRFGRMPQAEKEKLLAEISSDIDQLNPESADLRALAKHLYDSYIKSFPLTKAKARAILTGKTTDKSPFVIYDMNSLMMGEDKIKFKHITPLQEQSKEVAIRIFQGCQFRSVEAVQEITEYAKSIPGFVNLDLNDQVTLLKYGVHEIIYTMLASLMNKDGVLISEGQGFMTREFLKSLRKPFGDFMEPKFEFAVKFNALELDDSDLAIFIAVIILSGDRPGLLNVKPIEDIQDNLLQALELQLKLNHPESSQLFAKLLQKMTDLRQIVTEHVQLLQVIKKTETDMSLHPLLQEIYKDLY
# Sequence of Peroxisome proliferator-activated receptor gamma/Nuclear receptor corepressor 2 (Q9Y618 whole entry): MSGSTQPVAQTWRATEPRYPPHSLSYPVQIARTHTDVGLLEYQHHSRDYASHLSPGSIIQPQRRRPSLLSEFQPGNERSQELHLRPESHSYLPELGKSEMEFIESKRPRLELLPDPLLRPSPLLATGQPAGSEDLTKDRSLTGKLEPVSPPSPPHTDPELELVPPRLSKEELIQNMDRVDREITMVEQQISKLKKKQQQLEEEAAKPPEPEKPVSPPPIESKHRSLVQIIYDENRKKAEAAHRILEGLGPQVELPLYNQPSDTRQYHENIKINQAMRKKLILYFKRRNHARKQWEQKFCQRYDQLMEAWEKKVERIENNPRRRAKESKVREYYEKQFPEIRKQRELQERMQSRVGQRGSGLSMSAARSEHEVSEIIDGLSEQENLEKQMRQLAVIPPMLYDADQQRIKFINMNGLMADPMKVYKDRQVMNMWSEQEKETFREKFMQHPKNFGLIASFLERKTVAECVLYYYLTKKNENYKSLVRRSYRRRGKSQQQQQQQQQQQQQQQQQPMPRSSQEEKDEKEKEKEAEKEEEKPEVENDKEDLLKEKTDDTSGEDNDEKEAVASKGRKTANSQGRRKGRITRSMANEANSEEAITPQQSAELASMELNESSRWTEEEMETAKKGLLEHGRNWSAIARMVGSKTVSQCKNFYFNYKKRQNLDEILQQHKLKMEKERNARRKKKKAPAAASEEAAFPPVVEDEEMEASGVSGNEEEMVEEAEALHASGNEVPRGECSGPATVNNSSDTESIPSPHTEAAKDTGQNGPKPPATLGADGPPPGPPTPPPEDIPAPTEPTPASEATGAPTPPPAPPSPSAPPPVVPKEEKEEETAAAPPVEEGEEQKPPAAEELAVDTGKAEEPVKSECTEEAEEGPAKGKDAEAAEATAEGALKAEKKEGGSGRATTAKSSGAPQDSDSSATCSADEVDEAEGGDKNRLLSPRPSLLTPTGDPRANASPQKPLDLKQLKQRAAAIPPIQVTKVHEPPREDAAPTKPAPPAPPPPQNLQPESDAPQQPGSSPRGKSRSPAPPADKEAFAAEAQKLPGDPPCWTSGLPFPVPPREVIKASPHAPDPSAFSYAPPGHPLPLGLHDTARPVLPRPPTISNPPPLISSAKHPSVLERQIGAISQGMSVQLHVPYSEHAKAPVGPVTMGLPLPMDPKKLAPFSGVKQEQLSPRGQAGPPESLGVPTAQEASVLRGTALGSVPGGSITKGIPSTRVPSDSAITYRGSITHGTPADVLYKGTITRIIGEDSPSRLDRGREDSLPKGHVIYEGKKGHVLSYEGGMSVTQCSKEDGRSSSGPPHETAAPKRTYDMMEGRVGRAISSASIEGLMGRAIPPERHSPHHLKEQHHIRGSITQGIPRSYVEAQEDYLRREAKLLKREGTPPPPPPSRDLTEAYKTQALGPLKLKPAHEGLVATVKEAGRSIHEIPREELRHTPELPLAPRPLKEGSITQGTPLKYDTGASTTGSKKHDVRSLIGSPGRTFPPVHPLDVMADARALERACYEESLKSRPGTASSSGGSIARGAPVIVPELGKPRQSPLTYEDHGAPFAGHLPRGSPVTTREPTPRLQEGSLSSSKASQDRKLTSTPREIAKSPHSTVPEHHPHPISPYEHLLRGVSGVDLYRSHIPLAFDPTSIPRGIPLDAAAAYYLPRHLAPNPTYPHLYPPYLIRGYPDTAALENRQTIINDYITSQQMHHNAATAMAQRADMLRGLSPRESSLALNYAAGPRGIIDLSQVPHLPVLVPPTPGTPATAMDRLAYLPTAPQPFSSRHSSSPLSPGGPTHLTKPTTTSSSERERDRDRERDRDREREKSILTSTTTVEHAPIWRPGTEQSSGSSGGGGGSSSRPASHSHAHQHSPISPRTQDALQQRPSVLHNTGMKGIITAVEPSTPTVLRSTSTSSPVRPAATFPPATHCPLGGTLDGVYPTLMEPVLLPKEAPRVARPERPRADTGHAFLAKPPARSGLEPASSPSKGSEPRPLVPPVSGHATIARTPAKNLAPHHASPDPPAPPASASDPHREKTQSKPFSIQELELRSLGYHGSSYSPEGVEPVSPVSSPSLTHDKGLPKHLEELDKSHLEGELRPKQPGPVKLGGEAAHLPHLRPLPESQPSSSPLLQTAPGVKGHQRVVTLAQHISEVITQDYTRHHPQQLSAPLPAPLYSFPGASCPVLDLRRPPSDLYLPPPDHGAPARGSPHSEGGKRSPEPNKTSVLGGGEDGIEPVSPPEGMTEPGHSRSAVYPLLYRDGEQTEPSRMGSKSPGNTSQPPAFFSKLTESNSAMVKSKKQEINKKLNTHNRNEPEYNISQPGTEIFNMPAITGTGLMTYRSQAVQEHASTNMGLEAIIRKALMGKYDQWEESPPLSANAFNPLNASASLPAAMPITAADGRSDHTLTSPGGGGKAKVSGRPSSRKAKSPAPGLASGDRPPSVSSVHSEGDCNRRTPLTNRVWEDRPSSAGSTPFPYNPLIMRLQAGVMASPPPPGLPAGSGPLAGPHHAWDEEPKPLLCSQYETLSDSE
# Sequence of Photoreceptor-specific nuclear receptor (Q9Y5X4 whole entry): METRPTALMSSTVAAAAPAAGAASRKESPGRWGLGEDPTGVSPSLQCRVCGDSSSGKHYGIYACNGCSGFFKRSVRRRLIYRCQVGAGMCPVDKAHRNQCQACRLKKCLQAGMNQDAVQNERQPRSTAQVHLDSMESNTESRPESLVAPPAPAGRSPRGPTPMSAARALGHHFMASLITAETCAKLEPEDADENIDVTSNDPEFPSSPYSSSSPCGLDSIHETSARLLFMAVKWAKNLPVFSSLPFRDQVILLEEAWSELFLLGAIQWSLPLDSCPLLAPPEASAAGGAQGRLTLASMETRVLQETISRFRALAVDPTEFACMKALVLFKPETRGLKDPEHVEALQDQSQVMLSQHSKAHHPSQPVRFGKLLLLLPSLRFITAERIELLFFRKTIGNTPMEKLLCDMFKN
# Sequence of Eukaryotic translation initiation factor 4E (P63073 whole entry): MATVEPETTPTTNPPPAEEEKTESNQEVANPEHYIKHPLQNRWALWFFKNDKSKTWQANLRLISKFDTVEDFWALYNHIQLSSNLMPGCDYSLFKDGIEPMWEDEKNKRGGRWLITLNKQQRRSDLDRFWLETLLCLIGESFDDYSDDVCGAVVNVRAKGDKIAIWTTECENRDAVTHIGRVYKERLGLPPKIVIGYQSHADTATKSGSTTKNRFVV
# Sequence of NADPH oxidase 1 (Q9Y5S8 whole entry): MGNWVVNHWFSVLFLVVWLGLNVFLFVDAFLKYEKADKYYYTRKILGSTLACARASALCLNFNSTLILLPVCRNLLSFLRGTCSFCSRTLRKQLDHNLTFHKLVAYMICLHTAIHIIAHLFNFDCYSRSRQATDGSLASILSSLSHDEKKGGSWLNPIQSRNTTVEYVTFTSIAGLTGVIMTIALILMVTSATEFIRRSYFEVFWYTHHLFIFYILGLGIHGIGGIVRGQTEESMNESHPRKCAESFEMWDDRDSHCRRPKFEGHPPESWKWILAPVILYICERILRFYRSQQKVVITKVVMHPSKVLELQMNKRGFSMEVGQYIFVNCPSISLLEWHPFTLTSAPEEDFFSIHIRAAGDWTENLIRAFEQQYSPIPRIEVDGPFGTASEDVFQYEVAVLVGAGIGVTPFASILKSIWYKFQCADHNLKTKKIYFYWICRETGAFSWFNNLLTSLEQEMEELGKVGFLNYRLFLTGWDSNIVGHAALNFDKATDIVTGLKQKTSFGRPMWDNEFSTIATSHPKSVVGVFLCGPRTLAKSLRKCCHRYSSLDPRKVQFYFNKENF
smiles,measurement,setting,value
Cc1ccc(-n2c(=O)[nH]cc(C(=O)Nc3ccc4c(c3)OCO4)c2=O)cc1C,EC50,[1],7.75 µM (active)
O=C(CSc1nc2ccccc2o1)N1c2ccccc2Sc2ccc(C(F)(F)F)cc21,IC50,[2],> 50 µM (not active)
same,EC50,[3],> 32 µM (inactive)
O=C1NC(=S)N(c2ccc(F)cc2)C(=O)/C1=C\c1ccoc1,IC50,[4],50 µM (inactive)
same,IC50,[5],12.8 µM (active)
same,IC50,[6],1.53 µM (active)
same,IC50,[7],10.7 µM (active)
same,IC50,[8],> 25 µM (active)
COc1ccc(Nc2nc(N)nc(CCl)n2)cc1,IC50,[9],1.45 µM (active)
same,EC50,[10],> 150 µM (inconclusive)
same,EC50,[11],3.57 µM (active)
same,EC50,[12],2.25 µM (active)
same,EC50,[13],498 nM (inconclusive)
Cc1ccc(/C=[N+](\[O-])c2ccc(N(C)C)cc2)c2nsnc12,IC50,[14],> 50 µM (not active)
same,EC50,[15],8.84 µM (inconclusive)
same,IC50,[16],> 50 µM (not active)
same,AC50,[17],7.84 µM (active)
same,IC50,[18],9.25 µM (active)
same,EC50,[19],2.41 µM (active)
CC1=CC(C#N)(C#N)C(C#N)(C#N)C(c2ccccc2)N1 (centres undefined),IC50,[20],3.15 µM (active)
same,EC50,[21],2.46 µM (active)
same,EC50,[22],3.14 µM (active)
Cn1c(SCC(=O)Nc2cccc(Br)c2)nnc1-c1cc2ccccc2o1,IC50,[23],152 nM (active)
same,EC50,[24],14.5 µM (not active)
same,EC50,[25],13.3 µM (not active)
same,EC50,[26],18.3 µM (not active)
same,IC50,[27],167 nM (active)
C/C(=N/Cc1cccnc1)C1=C(O)c2ccccc2C1=O,AC50,[28],12.9 µM (active)
same,IC50,[29],20 µM (not active)
